Patent US20250002450A1, “CATIONIC STEROID COMPOUNDS, METHOD OF OBTAINING THEREOF, FORMULATIONS COMPRISING THEREOF AND THEIR USES” (UNIVERSIDADE DO PORTO, priority 2021, published 2025)
Converted amounts (≈) assume the structure as drawn. Like-named read-outs stand apart in the source and are kept apart here.

Columns and labels:
[1] = tested on: C. albicans H37; assay: Antifungal MIC/MLC (broth microdilution); assay type: cell-based, Candida albicans
Source text: (§1) Twenty-three fungal strains were used in this study, including reference strains and clinical isolates of yeasts and filamentous fungi. Yeast strains included reference strains (ATCC—American Type Culture Collection and CECT—Colección Española de Cultivos Tipo) and clinical isolates: C. albicans ATCC 10231, Candida krusei ATCC 6258, C. albicans H37, C. albicans FF172, C. albicans FF176, C. albicans DSY294, C. albicans DSY296, C. glabrata DSY562, C. glabrata DSY565 and Cryptococcus neoformans CECT 1078. Filamentous fungi included Aspergillus fumigatus ATCC 240305, A. fumigatus C111, A. niger ATCC 16404, A. flavus F44, Fusarium solani FF125, F. oxysporum FF115, and dermatophytes Trichophyton rubrum FF5, T. mentagrophytes FF7, Microscoporum canis FF1 and Nannizzia gypsea FF3 (formerly Microsporum gypseum) and a species of genera Mucor, Lichetheimia and Scedosporium. Saprolegnia parasitica CBS 223.65, a reference strain of an oomycete fish pathogen, was also included. All microorganisms were kept in Sabouraud Dextrose Broth (SDB: BioMérieux, Marcy L'Etoile, France) plus glycerol (20%) at −80° C. The strains were kept in Sabouraud Dextrose Agar (SDA: BioMérieux, Marcy L'Etoile, France) slants and were sub-cultured in SDA before each test. S. parasitica was kept in Corn Meal Agar plates (CMA: BBL™ Corn Meal Agar, BD, Le Pont-de-Claix, France) and was sub-cultured in CMA before each experiment. C. albicans H37, was kindly provided by Cidilia Pina Vaz (CHSJ, Porto, Portugal) and C. albicans DSY294, C. albicans DSY296, C. glabrata DSY562, C. glabrata DSY565 were kindly provided by D. Sanglard (University of Lausanne, Switzerland). A stock solution of compound 1 (10 mg/mL), was prepared in dimethyl sulfoxide (DMSO 99%: Alfa Aesar, Kandel, Germany), kept at −20 degrees C., and freshly diluted in the appropriate culture media before each assay. In all experiments, in-test concentrations of DMSO were kept below 2%.
(§2) Antifungal activity was evaluated by determining the MIC of compound 1 by the broth microdilution method, according to CLSI guidelines (reference documents M27-A3 for yeasts and M38-A2 for filamentous fungi). Briefly, cell or spore suspensions were prepared in RPMI-1640 broth medium (Biochrom, Berlin, Germany) buffered with 3-(N-morpholino)propane sulfonic acid (MOPS) (Sigma-Aldrich, St. Louis, MO, USA) (henceforth referred to as RPMI) from fresh cultures of the different strains of fungi. For yeasts, the inoculum was adjusted to 0.5-2.5×10^3 CFU/mL. For filamentous fungi, the inoculum was adjusted to 1-3×10^3 CFU/mL for dermatophytes, and 0.4-5×10^4 CFU/mL for all other strains. […] Sterility and growth controls were included in each assay. The 96-well flat-bottomed untreated polystyrene microtiter plates which were incubated for 48 h at 35° C., with the exception of Lichetheimia spp. which was incubated at 25° C. for 48 h, and the dermatophyte strains, which incubated for 5-7 days at 25° C. […] The minimal lethal concentration (MLC) was determined by spreading 20 μL of culture collected from wells showing no visible growth on SDA plates. The MLC was determined as the lowest concentration showing complete growth inhibition after 48 h at 35 degrees C., 48 h at 25 degrees C.

[2] = tested on: C. albicans DSY294; assay: Antifungal MIC/MLC (broth microdilution); assay type: cell-based, Candida albicans
Source text: as §1, §2

[3] = tested on: C. albicans DSY296; assay: Antifungal MIC/MLC (broth microdilution); assay type: cell-based, Candida albicans
Source text: as §1, §2

[4] = tested on: C. albicans FF176; assay: Antifungal MIC/MLC (broth microdilution); assay type: cell-based, Candida albicans
Source text: as §1, §2

[5] = tested on: C. albicans FF172; assay: Antifungal MIC/MLC (broth microdilution); assay type: cell-based, Candida albicans
Source text: as §1, §2

[6] = tested on: C. albicans ATCC 10231; assay: Time-kill kinetics; assay type: cell-based, Candida albicans
Procedure: As mentioned for antibacterial activity, time-kill plots allow the evaluation of killing of a microbial isolate over time and establishing how much exposure time is needed in order to achieve a fungicidal effect, which is usually defined by ≥99.9% killing of the initial inoculum and is determined by a 3-log10-unit decrease in CFU/mL. […] Time-kill kinetics of compound 1 were evaluated for C. albicans ATCC 10231.
Determination of killing of C. albicans ATCC 10231 over time was carried out using the time-kill method, as previously described. This assay was performed for concentrations of compound 1 ranging between 64 and 8 μg/mL. Colonies from 24 h cultures in SDA were suspended in sterile saline and adjusted to 0.5 McFarland. An aliquot of this suspension was then added to each tube of RPMI alone (control) or RPMI plus an appropriate amount of compound 1, to give an inoculum of approximately 10^5 CFU/mL in a final volume of 10 mL. Tubes were incubated at 36° C. in a water bath with shaking and vortexed prior to removing each sample for the determination of colony counts. At predetermined time points (30 min, 1, 1.5, 2, 3, 4, 6, 8, and 12 h), 100 μL aliquots were aseptically removed from each tube, serially diluted in sterile saline, and spread on SDA plates. Colony counts were determined following incubation at 36° C. for 24 to 48 h and log10 CFU/mL was plotted against time. At least three independent experiments were performed.

[7] = tested on: E. coli SA/2; assay: Checkerboard synergy with CTX; assay type: cell-based
Procedure: (§3) The combined effect of compound 1 and CTX for E. coli SA/2, VAN for E. faecalis B3/101, COL for E. coli 2252, erythromycin for E. coli ATCC 25922, and OXA for S. aureus 66/1 was evaluated by the checkerboard method. […] The interaction between compound 1 and erythromycin was assessed for E. coli ATCC 25922. Gram-negative bacteria are intrinsically resistant to erythromycin, a macrolide that inhibits protein synthesis, and cannot penetrate the outer membrane of Gram-negative bacteria, which is impermeable to hydrophobic antibiotics. Ascertain ceragenins have been previously described to be able to enhance the efficacy of such antibiotics, this possibility was investigated for compound 1 and a FICI of 0.6 was obtained.

[8] = tested on: E. coli 2252; assay: Checkerboard synergy with COL; assay type: cell-based, Escherichia coli
Procedure: as §3

[9] = tested on: C. albicans ATCC 10231; assay: Checkerboard synergy with antifungal drugs; assay type: cell-based, Candida albicans
Procedure: According to the consensus interpretation of FICI values, FICI≤0.5 is interpreted as ‘synergy’. […] Inoculum and compound solutions were prepared as described for antifungal susceptibility testing. Fractional inhibitory concentrations (FIC) were calculated as follows: FIC of compound=MIC of compound combined with antifungal/MIC compound alone, and FIC antifungal=MIC of antifungal combined with compound/MIC of antifungal alone. The FIC index (FICI) was calculated as the sum of each FIC and interpreted as follows: FICI≤0.5, ‘synergy’; 0.5<FICI≤4, ‘no interaction’; FICI>4, ‘antagonism’. At least three independent experiments were performed and mean FICI was calculated.

[10] = C. albicans H37, resistant to fluconazole or azoles
[11] = C. albicans DSY296, resistant to fluconazole or azoles
[12] = C. albicans FF176, resistant to fluconazole or azoles

SMILES: C[C@H](CCC(=O)NCCN)[C@H]1CC[C@H]2[C@@H]3CC[C@@H]4C[C@H](O)CC[C@]4(C)[C@H]3C[C@H](O)[C@]12C [Compound 1, (R)—N-(2-aminoethyl)-4-((3R,5R,8R,9S,10S,12S,13R,14S,17R)-3,12-dihydroxy-10,13-dimethylhexadecahydro-1H-cyclopenta[a]phenanthren-17-yl) pentanamida]
- MIC [1, 10]: 64 µg/mL (≈ 147 µM)
- MLC [1, 10]: 64 µg/mL (≈ 147 µM)
- MIC ([2]; C. albicans DSY294): 64 µg/mL (≈ 147 µM)
- MLC ([2]; C. albicans DSY294): 64 µg/mL (≈ 147 µM)
- MIC [3, 11]: 64 µg/mL (≈ 147 µM)
- MLC [3, 11]: 64 µg/mL (≈ 147 µM)
- MIC [4, 12]: 32 µg/mL (≈ 73.6 µM)
- MLC [4, 12]: 32 µg/mL (≈ 73.6 µM)
- MIC [5]: 64 µg/mL (≈ 147 µM)
- MLC [5]: 64 µg/mL (≈ 147 µM)
- exposure time to fungicidal effect (≥99.9% killing) ([6]; 64 μg/mL (MIC)): approximately 4 h
- additional time to produce an additional 1-log10-unit decrease in CFU/mL ([6]; 64 μg/mL, after the first 2 h): 10 h
- decrease in CFU/mL each hour ([6]; 64 μg/mL, until 2 h of exposure): 1 log10-unit
- type of killing (in words) ([6]; 64-8 μg/mL): concentration-dependent killing
- combined effect with CTX (in words) [7]: No synergistic interactions
- combined effect with COL (in words) ([8]; checkerboard, E. coli 2252): No synergistic interactions
- fractional inhibitory concentration index (FICI) ([8]; with COL, E. coli 2252 (mcr-1)): 0.6
- effect on trailing caused by fluconazole at its MIC (in words) ([9]; 16 μg/mL of compound 1 (¼×MIC), fluconazole 2 μg/mL): eliminated trailing
- fractional inhibitory concentration index (FICI) ([9]; with amphotericin B): ≤ 0.5
- fractional inhibitory concentration index (FICI) ([9]; with fluconazole): ≤ 0.5

SMILES: OC(Cn1cncn1)(Cn1cncn1)c1ccc(F)cc1F [Fluconazole, reference compound]
- MIC ([1]; Candida albicans, H37, read-out: MIC): ≥ 128 µg/mL
- MIC ([2]; Candida albicans, DSY294): 0.125 µg/mL (≈ 0.408 µM)
- MIC ([3]; Candida albicans, DSY296, read-out: MIC): 64 µg/mL (≈ 209 µM)
- MIC ([4]; Candida albicans, FF176, read-out: MIC): 32 µg/mL (≈ 104 µM)
- MIC ([5]; Candida albicans, read-out: MIC): 0.25 µg/mL (≈ 0.816 µM)
